Counter-ions that a name gives are not always drawn.
System: ISC-enriched organoids
Assay: Primary screen, 384-well 2.5-D organoid differentiation (ENR+CD, 6 days, Target Selective Inhibitor Library, vs whole-plate median): ATP (CellTiter-Glo 3D, CTG)

Compound	Z.CTG (standard z score) (Dose 0.08 uM, primary screen)	Z.CTG (standard z score) (Dose 0.40 uM, primary screen)	Z.CTG (standard z score) (Dose 2.00 uM, primary screen)	Z.CTG (standard z score) (Dose 10.00 uM, primary screen)	Z.CTG (standard z score) (dose 0.08 uM)	Z.CTG (standard z score) (dose 0.40 uM)	Z.CTG (standard z score) (dose 2.00 uM)	Z.CTG (standard z score) (dose 10.00 uM)
C#CCC(Cc1cnc2nc(N)nc(N)c2n1)c1ccc(C(=O)N[C@@H](CCC(=O)O)C(=O)O)cc1 (stereo partly drawn) [Pralatrexate]	−1.551	−2.036	−1.626	−2.201				
CCCN[C@H]1CCc2nc(N)sc2C1 [Pramipexole]	0.261	0.436	0.062	0.551				
CC(C)NCC(O)COc1cccc2ccccc12 (stereo not drawn) [Propranolol HCl]	0.158	0.129	0.279	0.400				
CCc1nc(N)nc(N)c1-c1ccc(Cl)cc1 [Pyrimethamine]	0.016	−0.618	−0.994	−1.480				
CCC(=O)NCC[C@@H]1CCc2ccc3c(c21)CCO3 [Ramelteon]	−0.066	0.369	−0.752	0.358				
CNC(=C[N+](=O)[O-])NCCSCc1ccc(CN(C)C)o1 [Ranitidine]	−0.121	0.370	−0.165	−0.625				
C#CCN[C@@H]1CCc2ccccc21 [Rasagiline Mesylate]	0.367	0.246	0.099	0.249				
O=C(NC(Cc1cc(=O)[nH]c2ccccc12)C(=O)O)c1ccc(Cl)cc1 (stereo not drawn) [Rebamipide]	−0.612	−1.217	−0.484	−0.672				
Cc1c(C(=O)NN2CCCCC2)nn(-c2ccc(Cl)cc2Cl)c1-c1ccc(Cl)cc1 [Rimonabant]	0.611	0.492	0.561	0.152				
O=C(NC[C@H]1CN(c2ccc(N3CCOCC3=O)cc2)C(=O)O1)c1ccc(Cl)s1 [Rivaroxaban]	0.050	0.466	0.123	0.104				
CN(C)CCc1c[nH]c2ccc(Cn3cncn3)cc12 [Rizatriptan Benzoate]	0.512	0.260	0.302	−0.129				
COc1cc2c(cc1OC)[C@@H]1Cc3ccc(OC)c(OC)c3CN1CC2 [Rotundine]	0.857	0.818	0.454	0.543				
CC(=O)OCC(=O)NCCCOc1cccc(CN2CCCCC2)c1 [Roxatidine Acetate HCl]	−0.095	0.050	−0.245	−0.564				
CC(C)N(CCCNC(=O)Nc1ccc(C(C)(C)C)cc1)C[C@H]1O[C@@H](n2cc(Br)c3c(N)ncnc32)[C@H](O)[C@@H]1O [SGC0946]	0.124	−0.290	−0.197	−0.340				
Oc1c2ccccc2c2c3c(cccc13)N=N2 [SP600125]	0.471	0.347	0.246	−0.047				
Cc1[nH]c(/C=C2\C(=O)Nc3ccc(S(=O)(=O)N(C)c4cccc(Cl)c4)cc32)c(C)c1C(=O)N1CCN(C)CC1 [SU11274]	0.852	0.645	0.139	−1.954				
CN[C@H]1CC[C@@H](c2ccc(Cl)c(Cl)c2)c2ccccc21 [Sertraline HCl]	−0.189	0.208	0.157	0.104				

Compound	Z.CTG (standard z score) (Dose 0.08 uM, primary screen)	Z.CTG (standard z score) (Dose 0.40 uM, primary screen)	Z.CTG (standard z score) (Dose 2.00 uM, primary screen)	Z.CTG (standard z score) (Dose 10.00 uM, primary screen)	Z.CTG (standard z score) (dose 0.08 uM)	Z.CTG (standard z score) (dose 0.40 uM)	Z.CTG (standard z score) (dose 2.00 uM)	Z.CTG (standard z score) (dose 10.00 uM)
CC(NC(=O)c1ccccc1/N=C/c1c(O)ccc2ccccc12)c1ccccc1 (stereo not drawn) [Sirtinol]	−0.520	0.022	−0.287	−0.186				
Cc1cc2c(cc1CC(=O)c1sccc1S(=O)(=O)Nc1onc(C)c1Cl)OCO2 [Sitaxentan sodium]	0.226	−0.478	−0.230	−0.240				
CN1CCN(c2nc(C3=C(c4c[nH]c5ccccc45)C(=O)NC3=O)c3ccccc3n2)CC1 [Sotrastaurin]	0.024	−0.286	−0.650	−0.578				
O=S(=O)(c1ccccc1)N(CC(F)(F)F)c1ccc(C(O)(C(F)(F)F)C(F)(F)F)cc1 [T0901317]	0.112	0.426	0.228	0.272				
Cc1cc(OCCCS(C)(=O)=O)cc(C)c1-c1cccc(COc2ccc3c(c2)OC[C@H]3CC(=O)O)c1 [TAK-875]	0.572	−0.392	−0.376	−0.694				
CN1CC(=O)N2[C@H](c3ccc4c(c3)OCO4)c3[nH]c4ccccc4c3C[C@@H]2C1=O [Tadalafil]	−0.046	0.863	1.042	0.644				
COc1cc2c(cc1OC)CN(CCc1ccc(NC(=O)c3cc(OC)c(OC)cc3NC(=O)c3cnc4ccccc4c3)cc1)CC2 [Tariquidar]	−0.280	0.128	0.899	0.543				
CCCc1nc2c(C)cc(-c3nc4ccccc4n3C)cc2n1Cc1ccc(-c2ccccc2C(=O)O)cc1 [Telmisartan]	0.320	0.584	0.153	0.549				
CC(C)OC(=O)OCOP(=O)(CO[C@H](C)Cn1cnc2c(N)ncnc21)OCOC(=O)OC(C)C [Tenofovir Disoproxil Fumarate]					0.172	−0.004	−0.378	−1.034
CCCSc1nc(N[C@@H]2C[C@H]2c2ccc(F)c(F)c2)c2nnn([C@@H]3C[C@H](OCCO)[C@@H](O)[C@H]3O)c2n1 [Ticagrelor]					−0.190	−0.069	−0.645	−0.576
Clc1ccccc1CN1CCc2sccc2C1 [Ticlopidine HCl]					−0.281	−0.097	−0.559	−0.013
O=c1oc2cc(O)ccc2s1 [Tioxolone]					0.586	0.212	0.105	0.783
c1ccc(CC2=NCCN2)cc1 [Tolazoline HCl]					0.585	0.530	−0.122	−0.496
Cc1c(Cl)cccc1Nc1ccccc1C(=O)O [Tolfenamic Acid]					0.467	−0.007	−0.379	−0.276
Cc1ccccc1C(=O)Nc1ccc(C(=O)N2CCCC(O)c3cc(Cl)ccc32)c(C)c1 (stereo not drawn) [Tolvaptan]					0.227	−0.019	−0.225	−0.249
CCOC(=O)N1c2ccc(C(F)(F)F)cc2[C@@H](N(Cc2cc(C(F)(F)F)cc(C(F)(F)F)c2)C(=O)OC)C[C@H]1CC [Torcetrapib]					0.677	0.147	−0.289	−0.360

— patent publication US20230398130A1, “METHODS AND COMPOSITIONS FOR DIFFERENTIATING STEM CELLS” (Massachusetts Institute of Technology, priority 2020, published 2023)
